Experimental data taken from US11185100B2 (priority 2014, dated 2021).
Where “and” joins values, the source holds several entries; their conditions need not be identical. Identical values can stand only once. Counter-ions that a name gives are not always drawn.

What was measured:
[1] = biological target: T1, cat T1R1/T1R3 receptor (Felis catus, UniProt E3UMS2); assay: Activation of cat T1R1/T1R3 receptor by nucleotide derivatives alone, with alanine and/or IMP; HEK293 cells, intracellular calcium fluorescence (Example 1); type: cell-based
Excerpt: […] Activation of the T1R1/T1R3 receptor was detected by a change in intracellular calcium levels using a calcium sensitive fluorescent dye. Cells that express T1R3 but not T1R1 were used as a control. A FLIPR® Tetra or a FlexStation® 3 was used for data capture.
The term half maximal effective concentration (EC50) refers to the concentration of a compound which induces a response halfway between the baseline and the maximum after a specified exposure time. In each experiment, serial dilutions of up to 0.1 mM, 1 mM or 10 mM of the nucleotide derivative were added to the T1R1/T1R3-expressing cells.

[2] = biological target: T2, T1R1/T1R3 receptor (Felis catus, UniProt E3UMS2); assay: Agonist screening of transmembrane compounds on T1R1/T1R3 in HEK293 cells (Example 8); type: cell-based, cat; conditions: for T1R1/T1R3 agonist: transmembrane compound tested at 0.01, 0.1 and 1 mM, HEK293 cells expressing T1R1/T1R3, calcium readout
Procedure: (§1) Agonist Screening Method: HEK293 cells that stably express T1R3 and inducibly express T1R1 were exposed to a transmembrane compound. Activation of the T1R1/T1R3 receptor was detected by a change in intracellular calcium levels using a calcium sensitive fluorescent dye and/or a luminescent reporter system. […] A FLIPR® Tetra or a FlexStation® 3 was used for data capture.
Each transmembrane compound was tested at concentrations of 0.01 mM, 0.1 mM, and 1 mM. […] To generate the dose response curves, the transmembrane compound was tested at concentrations of between 0.0001 mM and 1.0 mM in the presence of GMP and Ala.

[3] = biological target: T2, T1R1/T1R3 receptor; assay: PAM screening of transmembrane compounds with GMP and Ala on T1R1/T1R3 in HEK293 cells (Example 8); type: cell-based, cat; conditions: for T1R1/T1R3 PAM: transmembrane compound at 0.01, 0.1 and 1 mM with GMP + Ala mixtures (T1-T4), PAM if response greater than sum of compound alone and GMP+Ala alone
Excerpt: as §1, with “PAM” for “Agonist”, “to” for “to a”, “compound alone or in combination with Ala and GMP to activate the umami receptor.” for “compound.”
Dose response curves were generated for each transmembrane compound at concentrations of 0 (buffer only), 0.01, 0.1 and 1 mM, wherein each of the three concentrations of transmembrane compound was tested in combination with 0.03 mM GMP+100 mM Ala (T1); 0.6 mM GMP+10 mM Ala (T2); 0.1 mM GMP+60 mM Ala (T3) and 0.3 mM GMP+60 mM Ala (T4). The T4 mixture was also tested in a 2-fold dilution series (the T4(X) Concentration). In these experiments, the first test concentration was 2× (2 times) the T4 concentration. The subsequent test concentrations were 2-fold dilutions from that (1×, 0.5× etc.). This dilution series was tested with or without the addition of the test compound at a constant 0.3 mM concentration.
Activation of the umami receptor was also determined in the presence of 1 mM GMP+100 mM Ala to generate a “maximum” umami receptor activation level.

[4] = biological target: T2, T1R1/T1R3 receptor; assay: Activation of T1R1/T1R3 receptor by transmembrane compounds alone or with alanine, IMP, GMP, phenylalanine; HEK293 cells, calcium fluorescence (Example 5); type: cell-based, cat
How it was run: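 HEK293 cells stably expressing feline T1R3 with inducible T1R1 treated with serial dilutions (up to 10 mM) of transmembrane compounds, alone or combined with amino acids and/or nucleotides. Activation read as intracellular calcium change via calcium-sensitive fluorescent dye; T1R3-only cells served as control.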

[5] = biological target: T2, T1R1/T1R3 receptor; assay: Activation of T1R1/T1R3 receptor by transmembrane compounds and nucleotide derivatives, conducted as in Examples 1, 2 and 5 (Example 7); type: cell-based, cat
How it was run: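 HEK293 cells stably expressing feline T1R3 with inducible T1R1 were given serial dilutions of transmembrane compound up to 10 mM, alone or with amino acids and/or nucleotides. Activation was read as an intracellular calcium change by fluorescent dye on FLIPR Tetra or FlexStation 3. T1R3-only cells served as control.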

[6] = biological target: T1, cat T1R1/T1R3 receptor; assay: cell-based; type: cell-based
How it was run: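 Umami receptor activation in HEK293 cells stably expressing T1R3 with inducible T1R1, exposed to nucleotide derivatives alone or combined with amino acids and/or nucleotides. Intracellular calcium read with a calcium-sensitive fluorescent dye and/or luminescent reporter; cells expressing T1R3 without T1R1 served as control.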

[7] = EC50- with IMP (mM), with 0.2 mM IMP
[8] = compound alone in buffer, read-out: EC50- alone
[9] = with 20 mM alanine, read-out: EC50- with Ala

SMILES: Nc1ncnc2c1ncn2C1OC(COP(=O)(O)O)C(OP(=O)(O)O)C1O (stereo not drawn) [listing 1 of 2 here]
- EC50 [1, 7]: > 0.01 mM
- EC50 [1, 8]: > 0.01 mM
- EC50 [1, 9]: > 0.01 mM

SMILES: Nc1ncnc2c1ncn2C1OC(COP(=O)(O)O)C(OP(=O)(O)O)C1O (stereo not drawn) [listing 2 of 2 here]
- EC50 [1, 8]: > 0.03 mM
- EC50 [1, 9]: 0.003 ± 0.0003 mM

SMILES: O=C1C(=O)N(Cc2ccccc2)C(=S)N1Cc1ccccc1 [Formula 13, 1,3-dibenzyl-2-thioxoimidazolidine-4,5-dione]
- T1R1/T1R3 agonist [2]: No
- T1R1/T1R3 PAM [3]: No

SMILES: CCCC(CCC)NC(=O)c1ccc2c(c1)OCO2 [Formula 14, N-(heptan-4-yl)benzo[d][1,3]dioxole-5-carboxamide]
- T1R1/T1R3 agonist [2]: Yes
- T1R1/T1R3 PAM [3]: Yes

SMILES: COC(=O)[C@H](Cc1ccccc1)NCc1ccccc1 [Formula 15, N-Benzyl-L-phenylalanine methyl ester hydrochloride]
- T1R1/T1R3 agonist [2]: Yes
- T1R1/T1R3 PAM [3]: Yes

SMILES: COC(=O)[C@@H](Cc1ccccc1)NCc1ccccc1.Cl [Formula 16, N-Benzyl-D-Phenylalanine methyl ester hydrochloride]
- T1R1/T1R3 agonist [2]: Yes
- T1R1/T1R3 PAM [3]: Yes

SMILES: COC(=O)[C@H](CC(C)C)NCc1ccccc1.Cl [Formula 18, Benzyl-L-leucine methyl ester hydrochloride]
- T1R1/T1R3 agonist [2]: Yes
- T1R1/T1R3 PAM [3]: Yes

SMILES: COC(=O)C(NCc1ccccc1)c1ccccc1 (stereo not drawn) [Formula 19, Methyl-2-benzylamino-2-phenylacetate]
- T1R1/T1R3 agonist [2]: Yes
- T1R1/T1R3 PAM [3]: Yes

SMILES: Cl.N[C@@H](Cc1ccccc1)C(=O)OCc1ccccc1 [Formula 20, L-Phenylalanine benzyl ester hydrochloride]
- T1R1/T1R3 agonist [2]: Yes
- T1R1/T1R3 PAM [3]: Yes

SMILES: N[C@@H](Cc1ccc(O)cc1)C(=O)OCc1ccccc1 [Formula 21, L-Tyrosine benzyl ester]
- T1R1/T1R3 agonist [2]: No
- T1R1/T1R3 PAM [3]: No

SMILES: O=C(O)[C@H](Cc1ccc(O)cc1)NCc1ccccc1 [Formula 22, N-Benzyl-L-Tyrosine]
- T1R1/T1R3 agonist [2]: No
- T1R1/T1R3 PAM [3]: No

SMILES: Cc1ccc(CNC(Cc2ccccc2)C(=O)O)cc1 (stereo not drawn) [Formula 23, 2-((4-methylbenzyl)amino)-3-phenylpropanoic acid]
- T1R1/T1R3 agonist [2]: No
- T1R1/T1R3 PAM [3]: No

SMILES: O=C1CC(=O)N(Cc2ccccc2)C(=O)N1Cc1ccccc1 [Formula 24, 1,3-dibenzylpyrimidine-2,4,6(1H,3H,5H)-trione]
- T1R1/T1R3 agonist [2]: Yes
- T1R1/T1R3 PAM [3]: No

SMILES: Cl.N[C@@H](Cc1ccccc1)C(=O)OCc1ccccc1 [L-Phenylalanine benzyl ester hydrochloride]
- agonist profile assessment (activation of T1R1/T1R3 by the compound alone) [2]: agonist
- PAM profile assessment (activation of T1R1/T1R3 in the presence of GMP and Alanine) [3]: PAM activity

SMILES: COC(=O)C(NCc1ccccc1)c1ccccc1 (stereo not drawn) [Methyl-2-benzylamino-2-phenylacetate]
- agonist profile assessment (activation of T1R1/T1R3 by the compound alone) [2]: agonist
- PAM profile assessment (activation of T1R1/T1R3 in the presence of GMP and Alanine) [3]: PAM activity

SMILES: CCCC(CCC)NC(=O)c1ccc2c(c1)OCO2 [N-(heptan-4-yl)benzo[d][1,3]dioxole-5-carboxamide]
- +Alanine (20 mM) Max resp % of IMP ([4]; +Alanine (20 mM)): 142.7 % of IMP and 118.2 % of IMP
- +Alanine (20 mM) Max resp ΔF/F ([4]; +Alanine (20 mM)): 1.7725 ΔF/F and 1.2 ΔF/F
- Max resp % of IMP +Alanine (20 mM) ([4]; +Alanine (20 mM), relative to IMP): 118.2% and 142.7%
- +IMP (0.2 mM) Max resp % of Ala ([4]; +IMP (0.2 mM)): 119.6 % of Ala and 165.8 % of Ala
- +IMP (0.2 mM) Max resp ΔF/F ([4]; +IMP (0.2 mM)): 1.4725 ΔF/F
- Max resp ΔF/F +IMP (0.2 mM) ([4]; +IMP (0.2 mM)): 1.393 ΔF/F and 1.473 ΔF/F
- Max resp % of Ala +IMP (0.2 mM) ([4]; +IMP (0.2 mM), relative to Ala): 165.8% and 119.6%
- Activity ([4]; Table 18, all transmembrane compounds tested, active / N/A (not active)): active
- ΔF/F0 of ternary mixture with phenylalanine and GMP compared to phenylalanine and GMP without the agonist ([4]; with phenylalanine and GMP): approximately 10 ×
- agonist profile assessment (activation of T1R1/T1R3 by the compound alone) [2]: agonist
- PAM profile assessment (activation of T1R1/T1R3 in the presence of GMP and Alanine) [3]: PAM activity

SMILES: COC(=O)[C@@H](Cc1ccccc1)NCc1ccccc1.Cl [N-Benzyl-D-Phenylalanine methyl ester hydrochloride]
- agonist profile assessment (activation of T1R1/T1R3 by the compound alone) [2]: agonist
- PAM profile assessment (activation of T1R1/T1R3 in the presence of GMP and Alanine) [3]: PAM activity

SMILES: COC(=O)[C@H](Cc1ccccc1)NCc1ccccc1 [N-Benzyl-L-phenylalanine methyl ester]
- Max resp ΔF/F +Alanine (20 mM) [5]: 1.8725 ΔF/F
- Thres +Alanine (20 mM) [5]: 0.01 mM
- Max resp % of Ala +IMP (0.2 mM) ([5]; +IMP (0.2 mM)): 289.4 % of Ala
- Max resp ΔF/F +IMP (0.2 mM) ([5]; +IMP (0.2 mM)): 2.2500 ΔF/F
- Thres +IMP (0.2 mM) ([5]; +IMP (0.2 mM)): 0.003 mM
- Max resp % of IMP +Alanine (20 mM) ([5]; hek293 cells): 273.4 % of IMP
- Activity ([5]; modulation of T1R1/T1R3): active
- agonist profile assessment (activation of T1R1/T1R3 by the compound alone) [2]: agonist
- PAM profile assessment (activation of T1R1/T1R3 in the presence of GMP and Alanine) [3]: PAM activity

SMILES: C[C@H](N)C(=O)O [alanine, reference compound]
- EC50 [1, 8]: 13.6 mM

SMILES: O=c1nc[nH]c2c1ncn2C1O[C@H](COP(=O)(O)OP(=O)(O)OP(=O)(O)O)[C@@H](O)[C@H]1O (stereo partly drawn) [inosine triphosphate (ITP) trisodium salt]
- EC50 ([1]; EC50- with Ala and IMP (mM), with 20 mM alanine and 0.2 mM IMP): 0.03 ± 0.01 mM
- EC50 [1, 7]: 0.02 ± 0.03 mM
- EC50 [1, 8]: 0.05 ± 0.03 mM
- Activity [6]: active
- Max. resp. % of IMP ([6]; hek293 cells): 25.1 % of IMP
- EC50 ([6]; in the presence of 20 mM alanine, read-out: EC50- with Ala): 80 µM
